Measured values: patent US20240409549A1, “NEW CRYSTAL FORM AND USE OF NITROGENOUS TRICYCLIC COMPOUND” (SUNSHINE LAKE PHARMA CO., LTD., priority 2021, published 2024)

Tests used:
[1] = Pharmacokinetic experiment, oral capsules in Beagle dogs; format: in vivo; conditions: male Beagle dogs, 5 mg/kg
Experimental: The crystal form of the compound having Formula (I) was filled into capsules, which were used for oral administration.
Three male Beagle dogs weighing 8-12 kg were orally administered with capsules containing the test sample at a dose of 5 mg/kg, and blood samples were taken at time points of 0.25 h, 0.5 h, 1.0 h, 2.0 h, 4.0 h, 6.0 h, 8.0 h and 24 h. Standard curve was plotted based on concentrations of the samples in a suitable range, the concentration of the test sample in the plasma sample was measured and quantified by AB SCIEX API4000 LC-MS/MS at MRM mode. Pharmacokinetic parameters were calculated according to drug concentration -time curve using a noncompartmental method by WinNonLin 6.3 software.

[2] = Stability experiment: high-temperature test; format: physicochemical; conditions: for Purity (%): HPLC
Experimental: (§1) (1) High-temperature test: A batch of the test sample was taken into a flat weighing bottle, divided into ≤5 mm thick thin layer. The sample was placed at 60° C. for 30 days. The sample was then sampled at day 5, day 13 and day 30, and the change of the sample's color was observed. The purity of the sample was detected by HPLC.

[3] = Stability experiment: high-humidity test; format: physicochemical; conditions: for Purity (%): HPLC; for Purity (%) / Appearance: High-humidity 25° C., RH 90%±5%
Experimental: (2) High-humidity test: take a batch of the test sample into the flat weighing bottle, divided into ≤5 mm thick thin layer. The samples were sampled at 25° C. and RH for 90%±5% for 30 days. The samples were sampled at day 5, 13 and day 30, and the sample color was observed. The purity of the sample was determined by HPLC.

[4] = Stability experiment: photostability (lighting) test; format: physicochemical; conditions: for Purity (%): HPLC; for Purity (%) / Appearance: Lighting, open light box with UV
Excerpt: as §1, with “(3) Photostability Test:” for “(1) High-temperature test:”, “placed in an opened light box (with UV)” for “placed”, “the illuminance […], UV light≥0.7 w/m^2” for “60° C.”

[5] = Hygroscopicity experiment (dynamic vapor sorption); format: physicochemical
Experimental: The hygroscopicity of the present invention is measured using the DVS INT-Std dynamic moisture and gas adsorption analyzer of the Surface Measurement Systems Company in UK. The humidity test range was 0%-95%, the air flow was 200 mL/min, the temperature was 25° C., test point: take one test point per […] 5% humidity.
An appropriate amount of the test sample was taken and the hygroscopicity of the test sample was tested by dynamic moisture adsorption device. The description of the hygroscopic characteristics and the definition of the hygroscopic weight gain (Appendix 9103 of Chinese Pharmacopoeia 2020 Edition, Guidelines for Drug Hygroscopicity Tests, experimental conditions: 25° C.±1° C., 80%±2% relative humidity) are described in the table below: […]

[6] = High-temperature 60° C., day 13
[7] = High-temperature 60° C., day 30
[8] = day 0 (start, common to all conditions)

AUC(0-t) ([1]; dog, plasma): 1020 ng·h/mL
Cmax ([1]; dog, plasma): 389 ng/mL
Tmax [1]: 1.67 h
Purity (%) ([2]; High-temperature 60° C., day 5): 99.83%
Purity (%) [2, 6]: 99.91%
Purity (%) [2, 7]: 99.70%
Purity (%) [2, 8]: 99.88%
Appearance ([2]; High-temperature 60° C., day 5): White
Appearance [2, 6]: White
Appearance [2, 7]: White
Appearance [2, 8]: White
crystal structure stability ([2]; high temperature conditions): remains basically unchanged
Purity (%) ([3]; day 5): 99.81%
Purity (%) ([3]; day 13): 99.70%
Purity (%) ([3]; day 30): 99.82%
Appearance ([3]; day 5): White
Appearance ([3]; day 13): White
Appearance ([3]; day 30): White
crystal structure stability ([3]; high humidity conditions): remains basically unchanged
Purity (%) ([4]; day 5): 99.88%
Purity (%) ([4]; day 13): 99.59%
Purity (%) ([4]; day 30): 99.83%
Appearance ([4]; day 5): White
Appearance ([4]; day 13): White
Appearance ([4]; day 30): White
crystal structure stability ([4]; lighting conditions): remains basically unchanged
hygroscopic weight gain ([5]; after equilibrium at relative humidity of 80%, 25° C.): less than 0.2%
hygroscopic characteristics ([5]; relative humidity of 80%, criterion of Chinese Pharmacopoeia 2020 Appendix 9103): no or almost no hygroscopicity
SMILES: O=C(O)c1ccc2c(c1)Oc1ccc(OCc3c(-c4c(Cl)cccc4Cl)noc3C3CC3)nc1C1(CC1)C2 [Crystal form I, 2-((5-cyclopropyl-3-(2,6-dichlorophenyl)isoxazol-4-yl)methoxy)-10H-spiro[benzo[6,7]oxepino[3,2-b]pyridine-11,1′-cyclopropane]-7-carboxylic acid]
